Assay results from ChEMBL document CHEMBL5223104, “Discovery of triazenyl triazoles as Nav1.1 channel blockers for treatment of epilepsy” (Bioorg Med Chem Lett, 2022).
Blank lines part the entries; values can stand above or below the molecule they belong to. Active and inactive are the calls of the source. The calls are words filed in the database; no cut-off is given here.

Legend:
[1] = target: Sodium channel protein type 1 subunit alpha (Homo sapiens) (UniProt P35498); test: Modulator activity at human Nav1.1 expressed in human Flp-In-T-REx-293 cells assessed as half inactivation potential at 100 uM by whole cell patch clamp electrophysiology assay; type: cell-based
[2] = target: Sodium channel protein type 1 subunit alpha (Homo sapiens) (UniProt P35498); test: Modulator activity at human Nav1.1 expressed in human Flp-In-T-REx-293 cells assessed as change in half inactivation potential at 100 uM by whole cell patch clamp electrophysiology assay; type: cell-based
[3] = target: Sodium channel protein type 1 subunit alpha (Homo sapiens) (UniProt P35498); test: Modulator activity at human Nav1.1 expressed in human Flp-In-T-REx-293 cells assessed as half activation potential at 100 uM measured at holding potential of -120 mV by whole cell patch clamp electrophysiology assay; type: cell-based
[4] = target: Sodium channel protein type 1 subunit alpha (Homo sapiens) (UniProt P35498); test: Modulator activity at human Nav1.1 expressed in human Flp-In-T-REx-293 cells assessed as change in half activation potential at 100 uM measured at holding potential of -120 mV by whole cell patch clamp electrophysiology assay; type: cell-based
Mus musculus [5] = test: Anti-seizure activity against PTZ-induced ICR mouse seizure model assessed as decrease in seizure severity stage at 50 mg/kg, IG incubated for 1 hrs followed by PTZ stimulation and measured <30 mins; type: functional, organism-based; conditions: time < 1.5 hrs
Mus musculus [6] = test: Anti-seizure activity against PTZ-induced ICR mouse seizure model assessed as increase in survival rate at 50 mg/kg, IG incubated for 1 hrs followed by PTZ stimulation and measured <30 mins; type: functional, organism-based; conditions: time < 1.5 hrs
Mus musculus [7] = test: Anti-seizure activity against PTZ-induced ICR mouse seizure model assessed as increase in average latency to stage 6 at 50 mg/kg, IG incubated for 1 hrs followed by PTZ stimulation and measured <30 mins; type: functional, organism-based; conditions: time < 1.5 hrs
Mus musculus [8] = test: Anti-seizure activity against ICR mouse […] assessed as decrease in seizure stage at 50 mg/kg, IG incubated for 1 hrs followed by PTZ stimulation; type: functional, organism-based
Mus musculus [9] = test: Anti-seizure activity against PTZ-induced ICR mouse seizure model assessed as increase in average latency to stage 2 at 50 mg/kg, IG incubated for 1 hrs followed by PTZ stimulation and measured <30 mins; type: functional, organism-based; conditions: time < 1.5 hrs
Mus musculus [10] = test: Anti-seizure activity against ICR mouse […] assessed as decrease in tonic clonic seizure duration at 50 mg/kg, IG incubated for 1 hrs followed by PTZ stimulation; type: functional, organism-based
Mus musculus [11] = test: Anti-seizure activity against ICR mouse […] assessed as increase in survival rate at 50 mg/kg, IG incubated for 1 hrs followed by PTZ stimulation; type: functional, organism-based
[12] = Oral bioavailability in Sprague-Dawley rat at 50 mg/kg; type: ADME, organism-based; conditions: in vivo
[13] = Half life in Sprague-Dawley rat at 50 mg/kg, po; type: ADME, organism-based; conditions: in vivo
[14] = Apparent clearance during terminal phase in Sprague-Dawley rat at 50 mg/kg, po; type: ADME, organism-based; conditions: in vivo
[15] = Cmax in Sprague-Dawley rat at 50 mg/kg, po; type: ADME, organism-based; parameters: dose 50 mg/kg, route po; conditions: in vivo
[16] = AUClast in Sprague-Dawley rat plasma at 10 mg/kg, iv; type: ADME, organism-based; parameters: dose 10 mg/kg, route iv; conditions: in vivo
[17] = Apparent volume of distribution during terminal phase in Sprague-Dawley rat at 10 mg/kg, iv; type: ADME, organism-based; conditions: in vivo
[18] = Half life in Sprague-Dawley rat at 10 mg/kg, iv; type: ADME, organism-based; conditions: in vivo
[19] = Apparent clearance during terminal phase in Sprague-Dawley rat at 10 mg/kg, iv; type: ADME, organism-based; conditions: in vivo
Mus musculus [20] = test: Anti-seizure activity against ICR mouse […] assessed as increase in latency duration in stage 3 at 50 mg/kg, IG incubated for 1 hrs followed by PTZ stimulation; type: functional, organism-based
[21] = Tmax in Sprague-Dawley rat at 10 mg/kg, iv; type: ADME, organism-based; conditions: in vivo
[22] = Tmax in Sprague-Dawley rat at 50 mg/kg, po; type: ADME, organism-based; conditions: in vivo
[23] = Cmax in Sprague-Dawley rat at 10 mg/kg, iv; type: ADME, organism-based; parameters: dose 10 mg/kg, route iv; conditions: in vivo
[24] = AUClast in Sprague-Dawley rat plasma at 50 mg/kg, po; type: ADME, organism-based; parameters: dose 50 mg/kg, route po; conditions: in vivo
[25] = Apparent volume of distribution during terminal phase in Sprague-Dawley rat at 50 mg/kg, po; type: ADME, organism-based; conditions: in vivo, read-out: Vz/F

- V1/2 [1]: -66.6 mV
- delta(V1/2) [2]: -4.73 mV
- V1/2 [3]: -30.9 mV
- delta(V1/2) [4]: -3.11 mV
Structure (SMILES): CN(C)/N=N/c1c(C(N)=O)nnn1Cc1ccccc1F

- V1/2 [1]: -64.2 mV
- delta(V1/2) [2]: -3.79 mV
- V1/2 [3]: -43.2 mV
- delta(V1/2) [4]: -1.5 mV
Structure (SMILES): CN(C)/N=N/c1c(C(N)=O)nnn1Cc1ccccc1

- V1/2 [1]: -62 mV
- delta(V1/2) [2]: -4 mV
- V1/2 [3]: -39 mV
- delta(V1/2) [4]: -0.99 mV
Structure (SMILES): CN(C)/N=N/c1c(C(N)=O)nnn1Cc1ccc(F)cc1

- V1/2 [1]: -63.1 mV
- delta(V1/2) [2]: -4.36 mV
- V1/2 [3]: -36.5 mV
- delta(V1/2) [4]: -4.15 mV
Structure (SMILES): CN(C)/N=N/c1c(C(N)=O)nnn1Cc1ccc(F)cc1F

- V1/2 [1]: -66.2 mV
- delta(V1/2) [2]: -3.93 mV
- V1/2 [3]: -45.4 mV
- delta(V1/2) [4]: -1.05 mV
Structure (SMILES): Cc1ccc(Cn2nnc(C(N)=O)c2/N=N/N(C)C)cc1

- V1/2 [1]: -62.9 mV
- delta(V1/2) [2]: -3.13 mV
- V1/2 [3]: -42.7 mV
- delta(V1/2) [4]: -1.7 mV
Structure (SMILES): CN(C)/N=N/c1c(C(N)=O)nnn1Cc1ccccc1Cl

- bioavailability [12]: 34.3%
- t1/2 [13]: 63 min
- V1/2 [1]: -69.8 mV
- CLz/F [14]: 169 mL/min/kg
- Cmax [15]: 4496.74 ng/mL
- AUClast [16]: 3190 ng·h/mL
- Vz/F [17]: 0.93 L/kg
- t1/2 [18]: 11.4 min
- CLz/F [19]: 54.2 mL/min/kg
- Tmax [21]: 10.2 min
- delta(V1/2) [2]: -10.1 mV
- V1/2 [3]: -46.1 mV
- Tmax [22]: 10.2 min
- delta(V1/2) [4]: -1.81 mV
- Cmax [23]: 5203.99 ng/mL
- AUClast [24]: 5460 ng·h/mL
- Vd/F [25]: 13.6 L/kg
Structure (SMILES): CN(C)/N=N/c1c(C(N)=O)nnn1Cc1c(F)cccc1F
- Activity (Mus musculus [5]): Active
- Activity (Mus musculus [6]): Active
- Activity (Mus musculus [10]): Active
- Activity (Mus musculus [11]): Active
- Activity (Mus musculus [7]): Active
- Activity (Mus musculus [8]): Active
- Activity (Mus musculus [20]): Active
- Activity (Mus musculus [9]): Active

Second part, the molecule before the results:

Structure (SMILES): CN(C)/N=N/c1c(C(N)=O)nnn1-c1c(F)cccc1F
- V1/2 [1]: -64.3 mV
- delta(V1/2) [2]: -4.24 mV
- V1/2 [3]: -35.6 mV
- delta(V1/2) [4]: -1.09 mV

Structure (SMILES): NC(=O)c1cn(Cc2c(F)cccc2F)nn1
- V1/2 [1]: -66.7 mV
- delta(V1/2) [2]: -7.01 mV
- V1/2 [3]: -41.3 mV
- delta(V1/2) [4]: -7.39 mV

Structure (SMILES): CN(C)/N=N/c1c(C(=O)NCc2ccccc2)nnn1Cc1c(F)cccc1F
- Activity (Mus musculus [5]): Active
- Activity (Mus musculus [6]): Active
- Activity (Mus musculus [7]): Active
- V1/2 [1]: -78.8 mV
- Activity (Mus musculus [8]): inactive
- delta(V1/2) [2]: -11.3 mV
- V1/2 [3]: -36.2 mV
- Activity (Mus musculus [9]): Active
- delta(V1/2) [4]: 1.95 mV

Structure (SMILES): CN(C)/N=N/c1c(C(=O)NC2CC2)nnn1Cc1c(F)cccc1F
- V1/2 [1]: -64.2 mV
- delta(V1/2) [2]: -3.87 mV
- V1/2 [3]: -32.4 mV
- delta(V1/2) [4]: -2.85 mV

Structure (SMILES): CN(C)/N=N/c1c(C(N)=O)nnn1CCc1c(F)cccc1F
- V1/2 [1]: -61.5 mV
- delta(V1/2) [2]: -0.74 mV
- V1/2 [3]: -31.9 mV
- delta(V1/2) [4]: -2.65 mV

Structure (SMILES): CN(C)/N=N/c1c(C(=O)Nc2ccccc2)nnn1Cc1c(F)cccc1F
- V1/2 [1]: -73 mV
- delta(V1/2) [2]: -5.55 mV
- V1/2 [3]: -36.5 mV
- delta(V1/2) [4]: -1.64 mV

Structure (SMILES): COC(=O)CCCNC(=O)c1nnn(Cc2c(F)cccc2F)c1/N=N/N(C)C
- V1/2 [1]: -71.3 mV
- delta(V1/2) [2]: -4.72 mV
- V1/2 [3]: -35.7 mV
- delta(V1/2) [4]: -1.56 mV

Structure (SMILES): CNC(=O)c1nnn(Cc2c(F)cccc2F)c1/N=N/N(C)C
- V1/2 [1]: -69.6 mV
- delta(V1/2) [2]: -6.54 mV
- V1/2 [3]: -39.5 mV
- delta(V1/2) [4]: -4.56 mV
